From ChEMBL document CHEMBL2390946, “Discovery of TAK-960: an orally available small molecule inhibitor of polo-like kinase 1 (PLK1)” (Bioorg Med Chem Lett, 2013)

Key:
Type in all cases: ADME, organism-based
[1] = Clearance in rat at 1 mg/kg, iv and 5 mg/kg, po; details: in vivo
[2] = Oral bioavailability in rat at 5 mg/kg; details: in vivo
[3] = Half life in rat at 1 mg/kg, iv and 5 mg/kg, po; details: in vivo
[4] = Volume of distribution at steady state in rat at 1 mg/kg, iv and 5 mg/kg, po; details: in vivo, read-out: Vdss

Structure (SMILES) | clearance [1] [mL/min/kg] | bioavailability [2] [%] | half-life [3] [h] | Vd [4] [L/kg]
COc1cc(C(=O)NC2CCN(C)CC2)ccc1Nc1ncc2c(n1)N(C1CCCC1)CC(F)(F)C(=O)N2C | 51 | 11 | 3.3 | 19.6
COc1cc(C(=O)NC2CCN(C)CC2)c(F)cc1Nc1ncc2c(n1)N(C1CCCC1)CC(F)(F)C(=O)N2C [TAK-960] | 42 | 54 | 5.4 | 13.7
